Data: ChEMBL document CHEMBL5727859, “Indole derivatives and use thereof” (2020)
pIC50: −log10 of the molar value.

Assay: FLIPR Assays: In vitro assays were performed in a recombinant cell line expressing cDNA encoding the alpha subunit (Nav1.7, SCN9a, PN1, NE) of human Nav1.7 (Accession No. NM_002977). The cell line was provided by investigators at Yale University (Cummins et al, J. Neurosci. 18(23): 9607-9619 (1998)). For dominant selection of the Nav1.7-expressing clones, the expression plasmid co-expressed the neomycin resistance gene. The cell line was constructed in the human embryonic kidney cell line, HEK293, under the influence of the […], and stable clones were selected using limiting dilution cloning and antibiotic selection using the neomycin analogue, G418. Recombinant beta and gamma subunits were not introduced into this cell line. Additional cell lines expressing recombinant Nav1.7 cloned from other species can also be used, alone or in combination with various beta subunits, gamma subunits or chaperones.

SMILES: NC(=O)[C@H](O)[C@@H](O)c1cccc(-c2ccc3c(ccn3CC3CC3)c2)n1
- pIC50: 2.99
